We go through 36 molecules from patent US20050197350A1, “Novel quinoline, tetrahydroquinazoline, and pyrimidine derivatives and methods of treatment related to the use thereof” (TAISHO PHARMACEUTICAL CO., LTD., priority 2003, published 2005).

Each structure is given as a SMILES string.

One test deals with MCH receptors. Nature of the test: MCH receptor activity class (method not given).
Conditions: not given
Turning to `Cc1cc(N(C)C)nc(N[C@H]2CC[C@@H](C(=O)NCc3cc(C(F)(F)F)cc(C(F)(F)F)c3)CC2)n1` [Example 2578, cis-N-[3,5-bis(trifluoromethyl)benzyl]-4-{[4-(dimethylamino)-6-methylpyrimidin-2-yl]amino}cyclohexanecarboxamide], the class amounted to 1.

Regarding `Cc1cc(N(C)C)nc(N[C@H]2CC[C@@H](C(=O)NCc3cc(Cl)cc(Cl)c3)CC2)n1` [Example 2575, cis-N-(3,5-dichlorobenzyl)-4-{[4-(dimethylamino)-6-methylpyrimidin-2-yl]amino}cyclohexanecarboxamide], the class was determined as 1.

The same test, now with this note: MCH receptor activity class 1-3 (percent of control at 10^-7 M or IC50).
As for `CCOC(=O)[C@H](CC(C)C)NC(=O)NC[C@H]1CC[C@@H](Nc2nc3c(c(N(C)C)n2)CCCC3)CC1` (relative stereo) [compound 2455], the class is 2 (Class 2: The value of percent of control at 10^−7 M was from 40% to 60% or the value of IC′50 was from 50 nM to 200 nM.).

The test is the same for the next values; noted with them: MCH receptor; class by percent of control at 10^-7 M or IC50.
As to `COc1cc(OC)cc(C(=O)N[C@H]2CC[C@@H](Nc3cc(N(C)C)c4ccccc4n3)CC2)c1` [compound 76, N-(cis-4-{[4-(dimethylamino)quinolin-2-yl]amino}cyclohexyl)-3,5-dimethoxybenzamide], the class was 3 (Class 3 The value of percent of control at 10^−7 M was more than 60% or the value of IC50 was more than 200 nM.).

For `CN(C)c1cc(N[C@H]2CC[C@@H](NC(=O)Cc3ccccc3)CC2)nc2ccccc12` [compound 45, N-(cis-4-{[4-(dimethylamino)quinolin-2-yl]amino}cyclohexyl)-2-phenlacetamide], the class is reported as 3 (Class 3 The value of percent of control at 10^−7 M was more than 60% or the value of IC50 was more than 200 nM.).

On to `CCOC(=O)c1c(NC(=S)N[C@H]2CC[C@@H](Nc3nc4c(c(N(C)C)n3)CCCC4)CC2)sc2c1CCCC2` [compound 2069], for which the class was 3 (Class 3 The value of percent of control at 10^−7 M was more than 60% or the value of IC50 was more than 200 nM.).

Consider `COc1cccc(C(=O)NC[C@H]2CC[C@@H](Nc3cc(N(C)C)c4ccccc4n3)CC2)c1` [compound 147, N-[(cis-4-{[4-(dimethylamino)quinolin-2-yl]amino}cyclohexyl)methyl]-3-methoxybenzamide], for which the class is 3 (Class 3 The value of percent of control at 10^−7 M was more than 60% or the value of IC50 was more than 200 nM.).

For the molecule `COc1ccc(C(=O)N[C@H]2CC[C@@H](Nc3cc(N(C)C)c4ccccc4n3)CC2)cc1OC` [compound 104], the class was 3 (Class 3 The value of percent of control at 10^−7 M was more than 60% or the value of IC50 was more than 200 nM.).

The same test, now with this note: activity class 1-3: percent of control at 10^-7 M or IC50.
Regarding `CCOC(=O)c1cccc(NC(=O)N[C@H]2CC[C@@H](Nc3nc4c(c(N(C)C)n3)CCCC4)CC2)c1` [compound 1697], the class was 3 (Class 3 The value of percent of control at 10^−7 M was more than 60% or the value of IC50 was more than 200 nM.).

For the molecule `CN(C)c1nc(N[C@H]2CC[C@@H](NC(=O)Nc3cccc4ccccc34)CC2)nc2c1CCCC2` [compound 1700], the class was 2 (Class 2: The value of percent of control at 10^−7 M was from 40% to 60% or the value of IC′50 was from 50 nM to 200 nM.).

Take `Cc1cccc(NC(=O)N[C@H]2CC[C@@H](Nc3nc4c(c(N(C)C)n3)CCCC4)CC2)c1C` [compound 1696]: the class is reported as 3 (Class 3 The value of percent of control at 10^−7 M was more than 60% or the value of IC50 was more than 200 nM.).

In the case of `COCCOC(=O)N[C@H]1CC[C@@H](Nc2cc(N(C)C)c3ccccc3n2)CC1` [compound 1545], the class is given as 3 (Class 3 The value of percent of control at 10^−7 M was more than 60% or the value of IC50 was more than 200 nM.).

Staying with this test, now noted: activity class per percent of control at 10^-7 M or IC50.
`COC(=O)c1ccccc1Sc1nc2sccn2c1CN[C@H]1CC[C@@H](Nc2cc(N(C)C)c3ccccc3n2)CC1` [compound 1116]: the class was 3 (Class 3 The value of percent of control at 10^−7 M was more than 60% or the value of IC50 was more than 200 nM.).

Regarding `Cc1cc(C)c(NC(=O)Nc2ccc(OC(F)(F)F)cc2)c(C(=O)N[C@H]2CC[C@@H](Nc3nc4c(c(N(C)C)n3)CCCC4)CC2)c1` [compound 993], the class was 1 (Class 1: The value of percent of control at 10^−7 M was less than 40% or the value of IC50 was less than 50 nM.).

Take `CN(C)c1nc(N[C@H]2CC[C@@H](NC(=O)C(CC(=O)c3ccc(Cl)cc3)SCc3ccc(Cl)cc3)CC2)nc2c1CCCC2` (relative stereo) [compound 1017]: the class is given as 3 (Class 3 The value of percent of control at 10^−7 M was more than 60% or the value of IC50 was more than 200 nM.).

The same test, now with this note: class 1-3 by percent of control at 10^-7 M or IC50.
In the case of `CN(C)c1nc(N[C@H]2CC[C@@H](NC(=O)c3ccccc3SC(F)F)CC2)nc2c1CCCC2` [compound 518], the class was 3 (Class 3 The value of percent of control at 10^−7 M was more than 60% or the value of IC50 was more than 200 nM.).

Still in this test, the particulars now being: class by percent of control at 10^-7 M or IC50.
With `COC(=O)c1cccc(NC(=O)N[C@H]2CC[C@@H](Nc3nc4c(c(N(C)C)n3)CCCC4)CC2)c1` [compound 1870], the class is given as 3 (Class 3 The value of percent of control at 10^−7 M was more than 60% or the value of IC50 was more than 200 nM.).

Take `CCOc1ccccc1CNC[C@H]1CC[C@@H](Nc2nccc(N(C)C)n2)CC1` [compound 1244]: the class is reported as 2 (Class 2: The value of percent of control at 10^−7 M was from 40% to 60% or the value of IC′50 was from 50 nM to 200 nM.).

Regarding `CN(C)c1nc(N[C@H]2CC[C@@H](CNC(=O)c3c(F)cccc3C(F)(F)F)CC2)nc2c1CCCC2` [compound 665], the class is on record as 3 (Class 3 The value of percent of control at 10^−7 M was more than 60% or the value of IC50 was more than 200 nM.).

Take `CN(C)c1ccnc(N[C@H]2CC[C@@H](NC(=O)c3csc4ccccc34)CC2)n1` [compound 309]: the class is on record as 3 (Class 3 The value of percent of control at 10^−7 M was more than 60% or the value of IC50 was more than 200 nM.).

Turning to `CN(C)c1nc(N[C@H]2CC[C@@H](CNC(=O)c3cccc(C(F)(F)F)c3F)CC2)nc2c1CCCC2` [compound 626], the class is reported as 3 (Class 3 The value of percent of control at 10^−7 M was more than 60% or the value of IC50 was more than 200 nM.).

On to `COc1cc(Br)c(CNC[C@H]2CC[C@@H](Nc3cc(N(C)C)c4ccccc4n3)CC2)cc1OC` [compound 1191], for which the class is 3 (Class 3 The value of percent of control at 10^−7 M was more than 60% or the value of IC50 was more than 200 nM.).

Regarding `CN(C)c1cc(N[C@H]2CC[C@@H](NC(=O)Cc3ccc(Cl)c(Cl)c3)CC2)nc2ccccc12` [compound 699], the class was 3 (Class 3 The value of percent of control at 10^−7 M was more than 60% or the value of IC50 was more than 200 nM.).

On to `CN(C)c1nc(N[C@H]2CC[C@@H](NC(=O)c3cn(Cc4ccccc4)c4ccccc34)CC2)nc2c1CCCC2` [compound 967], for which the class is 3 (Class 3 The value of percent of control at 10^−7 M was more than 60% or the value of IC50 was more than 200 nM.).

`CN(C)c1ccnc(N[C@H]2CC[C@@H](NCc3c[nH]c4ccc(Br)cc34)CC2)n1` [compound 1213]: the class is reported as 2 (Class 2: The value of percent of control at 10^−7 M was from 40% to 60% or the value of IC′50 was from 50 nM to 200 nM.).

As for `CN(C)c1ccnc(N[C@H]2CC[C@@H](NC(=O)CC(c3ccccc3)c3ccccc3)CC2)n1` [compound 895], the class is 3 (Class 3 The value of percent of control at 10^−7 M was more than 60% or the value of IC50 was more than 200 nM.).

As for `CN(C)c1ccnc(N[C@H]2CC[C@@H](CNC(=O)c3ccc(-c4ccc(Cl)cc4[N+](=O)[O-])o3)CC2)n1` [compound 928], the class was 3 (Class 3 The value of percent of control at 10^−7 M was more than 60% or the value of IC50 was more than 200 nM.).

`CN(C)c1nc(N[C@H]2CC[C@@H](NC(=O)Cc3c(Cl)ccc(Cl)c3Cl)CC2)nc2c1CCCC2` [compound 950]: the class is reported as 2 (Class 2: The value of percent of control at 10^−7 M was from 40% to 60% or the value of IC′50 was from 50 nM to 200 nM.).

Consider `Cc1cc(C)c(NC(=S)N[C@H]2CC[C@@H](Nc3nc4c(c(N(C)C)n3)CCCC4)CC2)c(C)c1` [compound 1755], for which the class was 1 (Class 1: The value of percent of control at 10^−7 M was less than 40% or the value of IC50 was less than 50 nM.).

Regarding `CCCc1ccccc1NC(=O)N[C@H]1CC[C@@H](Nc2nccc(N(C)C)n2)CC1` [compound 2202], the class is 3 (Class 3 The value of percent of control at 10^−7 M was more than 60% or the value of IC50 was more than 200 nM.).

In the case of `CN(C)c1nc(N[C@H]2CC[C@@H](NC(=O)C(c3ccc(Cl)cc3)c3ccc(Cl)cc3)CC2)nc2c1CCCC2` [compound 962], the class is on record as 1 (Class 1: The value of percent of control at 10^−7 M was less than 40% or the value of IC50 was less than 50 nM.).

In the case of `COc1cc(CN[C@H]2CC[C@@H](Nc3nc4c(c(N(C)C)n3)CCCC4)CC2)cc(OC)c1` [compound 1342], the class is listed as 2 (Class 2: The value of percent of control at 10^−7 M was from 40% to 60% or the value of IC′50 was from 50 nM to 200 nM.).

As to `COc1cc(OC)c(OC)cc1CNC[C@H]1CC[C@@H](Nc2nccc(N(C)C)n2)CC1` [compound 1296], the class is on record as 2 (Class 2: The value of percent of control at 10^−7 M was from 40% to 60% or the value of IC′50 was from 50 nM to 200 nM.).

Still in this test, the particulars now being: class by percent of control at 10^−7 M or IC50.
On to `Cc1cccc(C(=O)N[C@H]2CC[C@@H](Nc3nc(C)cc(N(C)C)n3)CC2)c1` [compound 2983, N-(cis-4-{[4-(dimethylamino)-6-methylpyrimidin-2-yl]amino}cyclohexyl)-3-methylbenzamide], for which the class is 1 (Class 1: The value of percent of control at 10^−7 M was less than 40% or the value of IC50 was less than 50 nM.).

As for `Cc1cnc(N[C@H]2CC[C@@H](NCc3cc(Cl)cc(Cl)c3)CC2)nc1N(C)C` [compound 3001], the class was 3 (Class 3 The value of percent of control at 10^−7 M was more than 60% or the value of IC50 was more than 200 nM.).

In the case of `Cc1cnc(N[C@H]2CC[C@@H](CNC(=O)c3cccnc3Oc3ccccc3Br)C2)nc1N(C)C` [compound 3014], the class is 3 (Class 3 The value of percent of control at 10^−7 M was more than 60% or the value of IC50 was more than 200 nM.).
